According to patent US20230009608A1, “GRK2 INHIBITORS AND USES THEREOF” (Cygnal Therapeutics, Inc., priority 2020, published 2023):
pIC50: −log10 of the molar value.

Test system: PAXF1657 control empty vector cell line
Experiment: 7-day proliferation assay, PAXF1657 control empty vector cell line (Example 9)
Format: cell-based
Details: 168 h; Cell Line: PAXF1657 empty vector (EV) cell line; 7-day; read-out: C: 7-day proliferation assay: IC50 GeoMean
Description: In order to identify compounds specific for GRK2, we generated two isogenic cell line pairs of the pancreatic cancer cell line PAXF1657, a pair of cells stably overexpressing GRK2 cDNA or the control empty vector and a cell line pair of PAXF1657 GRK2 knockout clonal cells versus non-targeting control clonal cells.
Proliferation Assay: Cellular anti-proliferative activity of compounds was assessed by using the pancreatic cancer cell line, PAXF1657, stably overexpressing GRK2 cDNA or the control empty vector, as well as the parental urinary bladder cancer cell line, 5637. In addition, we also took advantage of GRK2 knockout cell lines that were generated via CRISPR. Cell lines were seeded into tissue culture treated, white-walled, 96-well plates at a density of 500 cells/well in RPMI1640 media supplemented with 10% H.I. FBS and penicillin/streptomycin. Plates were incubated overnight at 37° C., 5% CO2 to allow cells to adhere to the wells. GRK2 inhibitors were added to the cells using a 10-point dilution series with a final concentration ranging from 30 μM-0.0002 μM in 0.3% DMSO. At the time of compound addition, a set of plates, that were not treated with compounds, were collected and cell viability was measured using CellTiter-Glo (Promega). CellTiter-Glo reagent was added to the designed plates and luminescence was measuring using a Biotek Synergy plate reader. The compound treated cells were incubated for 3 days at 37° C., 5% CO2. The media was then aspirated from each well and replaced with fresh media containing GRK2 inhibitors. The compound treated cells were then incubated for an additional 4 days at 37° C., 5% CO2. Cell viability was assessed and at end of the 7-day compound treatment by CellTiterGlo.

| Compound | pIC50 |
| --- | --- |
| Cn1c(CNc2cccc(C(=O)NCc3ccccc3C(F)(F)F)c2)nnc1-c1ccncn1 | 5.94 |
| COc1ccc(CNC(=O)c2cccc(NCc3nnc(-c4ccncn4)n3C)c2)nc1 | < 5.00 |
| CC(C)C(NC(=O)c1cccc(NCc2nnc(-c3ccncn3)n2C)c1)c1nncn1C (centres unmarked) | < 5.00 |
| O=C(NCc1ccncn1)c1cccc(NCc2nnc(-c3ccncc3)[nH]2)c1 | < 5.00 |
| C[C@H](NC(=O)c1cccc(NCc2nnc(-c3ccncn3)n2C)c1)c1cncc(F)c1 | 5.64 |
| COCC(C)(NC(=O)c1cccc(NCc2nnc(-c3ccncn3)n2C)c1)c1ccccc1 (centres unmarked) | 6.06 |
| Cn1c(CNc2cccc(C(=O)N[C@H]3CCOc4c(F)cc(F)cc43)c2)nnc1-c1ccncn1 | < 5.00 |
| Cn1c(CNc2cccc(C(=O)NCc3ccccc3-n3cncn3)c2)nnc1-c1ccncn1 | < 5.00 |
| Cn1cc(C(NC(=O)c2cccc(NCc3nnc(-c4ccncn4)n3C)c2)c2ccc(F)cc2)cn1 (centres unmarked) | < 5.00 |
| Cn1c(CNc2cccc(C(=O)NCc3ccnc(C(F)(F)F)c3)c2)nnc1-c1ccncn1 | 6.00 |
| Cn1c(CNc2cccc(C(=O)NCc3cccc(CN4CCOCC4)c3)c2)nnc1-c1ccncn1 | < 5.00 |
| Cn1c(CNc2cccc(C(=O)NCc3cc4n(n3)CCCC4)c2)nnc1-c1ccncn1 | 5.66 |
| CO[C@H]1C[C@H](CNC(=O)c2cccc(NCc3nnc(-c4ccncc4)[nH]3)c2)C1 | < 5.00 |
| Cn1c(CNc2cccc(C(=O)NCc3cncc(F)c3)c2)nnc1-c1ccncn1 | < 5.00 |
| CNc1cc(CNC(=O)c2cccc(NCc3nnc(-c4ccncc4)[nH]3)c2)ccn1 | < 5.00 |
| Cn1c(CNc2cccc(C(=O)NCc3cc(C(C)(C)C)ccn3)c2)nnc1-c1ccncn1 | 5.57 |
| COCc1cccc(CNC(=O)c2cccc(NCc3nnc(-c4ccncn4)n3C)c2)c1 | 5.60 |
| Cn1c(CNc2cccc(C(=O)NCc3nncn3C3CC3)c2)nnc1-c1ccncn1 | < 5.00 |
| Cn1c(CNc2cccc(C(=O)NCc3ccc4c(c3)CNC4=O)c2)nnc1-c1ccncn1 | < 5.00 |
| O=C(NCCc1ncccn1)c1cccc(NCc2nnc(-c3ccncc3)[nH]2)c1 | < 5.00 |

| Compound | pIC50 |
| --- | --- |
| CC(NC(=O)c1cccc(NCc2nnc(-c3ccncn3)n2C)c1)c1nccn1-c1ccccc1 (centres unmarked) | < 5.00 |
| CCc1cc(CNC(=O)c2cccc(NCc3nnc(-c4ccncn4)n3C)c2)no1 | 5.45 |
| CC(C)Oc1ncccc1CNC(=O)c1cccc(NCc2nnc(-c3ccncn3)n2C)c1 | 5.63 |
| C[C@H](NC(=O)c1cccc(NCc2nnc(-c3ccncc3)[nH]2)c1)c1cnnn1C | < 5.00 |
| CC(O)C(NC(=O)c1cccc(NCc2nnc(-c3ccncn3)n2C)c1)c1ccccc1 (centres unmarked) | 5.75 |
| Cc1nc2n(n1)CCCC2NC(=O)c1cccc(NCc2nnc(-c3ccncn3)n2C)c1 (centres unmarked) | < 5.00 |
| Cc1n[nH]cc1CNC(=O)c1cccc(NCc2nnc(-c3ccncc3)[nH]2)c1 | < 5.00 |
| O=C(NCc1nnc2n1CCC(C(F)(F)F)C2)c1cccc(NCc2nnc(-c3ccncc3)[nH]2)c1 (centres unmarked) | 4.05 |
| [2H]C([2H])(Nc1cccc(C(=O)N[C@@H]2COCc3ccccc32)c1)c1nnc(-c2ccncn2)n1C | 6.94 |
| Cn1c(CNc2cccc(C(=O)NC(C)(C)c3ncccn3)c2)nnc1-c1ccncn1 | < 5.00 |
| COc1cnccc1CNC(=O)c1cccc(NCc2nnc(-c3ccncn3)n2C)c1 | < 5.00 |
| Cc1nc(C)c(CNC(=O)c2cccc(NCc3nnc(-c4ccncc4)[nH]3)c2)o1 | < 5.00 |
| COCCn1cc(C(C)NC(=O)c2cccc(NCc3nnc(-c4ccncc4)[nH]3)c2)cn1 (centres unmarked) | < 5.00 |
| C[C@H](NC(=O)c1cccc(NCc2nnc(-c3ccncc3)[nH]2)c1)c1ccnn1C | 5.01 |
| [2H]C([2H])(Nc1cccc(C(=O)N[C@@H]2CCOc3cccnc32)c1)c1nnc(-c2ccncn2)n1C | 6.56 |
| CC(C)n1ncnc1CNC(=O)c1cccc(NCc2nnc(-c3ccncn3)n2C)c1 | < 5.00 |
| C[C@H](NC(=O)c1cccc(NCc2nnc(-c3ccncc3)[nH]2)c1)c1ccncc1 | < 5.00 |
| CC(C)n1ncnc1CNC(=O)c1cccc(NCc2nnc(-c3ccncc3)[nH]2)c1 | < 5.00 |
| Cc1nnc(CNC(=O)c2cccc(NCc3nnc(-c4ccncc4)[nH]3)c2)n1C | < 5.00 |
| Cn1c(CNc2cccc(C(=O)NCc3ccncc3)c2)nnc1-c1ccncn1 | < 5.00 |

| Compound | pIC50 |
| --- | --- |
| CC(NC(=O)c1cccc(NCc2nnc(-c3ccncc3)[nH]2)c1)c1ncn(C)n1 (centres unmarked) | < 5.00 |
| Cn1ncnc1CNC(=O)c1cccc(NCc2nnc(-c3ccncc3)[nH]2)c1 | < 5.00 |
| Cn1c(CNc2cccc(C(=O)NCc3cccc(C(F)(F)F)n3)c2)nnc1-c1ccncn1 | 5.73 |
| CC[C@H](NC(=O)c1cccc(NCc2nnc(-c3ccncn3)n2C)c1)c1ccccn1 | < 5.00 |
| Cn1c(CNc2cccc(C(=O)NC3CCCc4ncccc43)c2)nnc1-c1ccncn1 (centres unmarked) | 5.60 |
| Cc1csc(C(C)(C)NC(=O)c2cccc(NCc3nnc(-c4ccncn4)n3C)c2)n1 | < 5.00 |
| Cn1c(CNc2cccc(C(=O)NC3(c4cccnc4)CCC3)c2)nnc1-c1ccncn1 | < 5.00 |
| CCn1cnnc1CNC(=O)c1cccc(NCc2nnc(-c3ccncc3)[nH]2)c1 | < 5.00 |
| O=C(NCc1nnc2n1CCCCC2)c1cccc(NCc2nnc(-c3ccncc3)[nH]2)c1 | < 5.00 |
| CCn1nc(C)c(CNC(=O)c2cccc(NCc3nnc(-c4ccncn4)n3C)c2)n1 | 6.26 |
| CC(C)Cn1nccc1CNC(=O)c1cccc(NCc2nnc(-c3ccncn3)n2C)c1 | 5.70 |
| COc1cnccc1C(C)NC(=O)c1cccc(NCc2nnc(-c3ccncc3)[nH]2)c1 (centres unmarked) | < 5.00 |
| C[C@H](NC(=O)c1cccc(NCc2nnc(-c3ccncn3)n2C)c1)c1ccnn1C | < 5.00 |
| Cn1c(CNc2cccc(C(=O)NC(CO)c3cccc(F)c3)c2)nnc1-c1ccncn1 (centres unmarked) | 5.61 |
| Cn1cc(C(C)(C)NC(=O)c2cccc(NCc3nnc(-c4ccncn4)n3C)c2)cn1 | < 5.00 |
| Cn1c(CNc2cccc(C(=O)N[C@H]3c4ccccc4CC[C@H]3O)c2)nnc1-c1ccncn1 | < 5.00 |
| Cn1c(CNc2cccc(C(=O)NCc3nc(C4CC4)cs3)c2)nnc1-c1ccncn1 | 5.59 |
| Cn1c(CNc2cccc(C(=O)NCc3ncoc3C(F)(F)F)c2)nnc1-c1ccncn1 | < 5.00 |
| O=C(NC[C@H]1COCCO1)c1cccc(NCc2nnc(-c3ccncc3)[nH]2)c1 | 5.95 |
